This experiment deals with T1, Cytochrome P450 11B2, mitochondrial (Homo sapiens, UniProt P19099).
T1 sequence (P19099 whole entry): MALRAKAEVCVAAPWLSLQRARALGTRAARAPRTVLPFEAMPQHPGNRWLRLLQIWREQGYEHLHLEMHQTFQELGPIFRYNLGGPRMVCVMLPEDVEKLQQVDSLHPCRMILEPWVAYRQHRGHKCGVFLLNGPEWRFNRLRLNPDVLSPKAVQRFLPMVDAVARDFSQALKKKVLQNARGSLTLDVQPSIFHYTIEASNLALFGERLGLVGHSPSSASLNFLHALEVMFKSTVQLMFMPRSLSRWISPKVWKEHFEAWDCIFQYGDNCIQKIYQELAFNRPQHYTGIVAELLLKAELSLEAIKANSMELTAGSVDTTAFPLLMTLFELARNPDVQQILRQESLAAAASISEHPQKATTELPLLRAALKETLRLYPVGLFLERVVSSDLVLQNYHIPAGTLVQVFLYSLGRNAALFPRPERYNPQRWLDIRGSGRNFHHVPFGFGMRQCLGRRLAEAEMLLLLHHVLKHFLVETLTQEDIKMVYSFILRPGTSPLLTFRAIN
Briefly: HTRF-Based Assay : V79 cell lines stably expressing the either the human CYP11B2 or the human CYP11B1 enzyme were generated using a standard transfection protocol. V79 cells were transfected with plasmids pTriEx3-Hygro-hCyp11B2 or pTriEx3-Hygro-hCyp11B1 using Lipofectamine2000 reagent. V79 cells that stably express the human CYP11B2 or human CYP11B1 enzyme were selected for and maintained in DMEM supplemented with 10% FBS and 400 μg/mL hygromycin for 2 weeks. Single cell clones were generated by infinite dilution in DMEM supplemented with 10% FBS and 400 μg/mL hygromycin until single colonies were obtained. Clones V79-hCYP11B2-CLE9 and V79-hCYP11B1-CL8C7, were determined to produce the most aldosterone and cortisol, respectively, and were selected for inhibitor screening. For testing of inhibitors, cells were harvested at 80% confluency with 0.05% Trypsan-EDTA, washed once in PBS, and reconstituted in DMEM+0.1% BSA media at a cell concentration of 600,000 cells/mL for the CYP11B2 assay and 280,000 cells/mL for the CYP11B1 assay. 25 μL of cells were added to a 384 well tissue culture treated plate and mixed with 0.3 μL of inhibitor or DMSO (1% final DMSO concentration) for 1 hour at 37° C., 5% CO2. After pre-incubation with inhibitor, the reaction was initiated by adding 5 μL of substrate (final concentration of 125 nM 11-deoxycorticosterone for the CYP11B2 assay or 250 nM 11-deoxycortisol for the CYP11B1 assay). The reaction was carried out for 3 hours at 37° C., 5% CO2 and was stopped by harvesting the supernatants. The amount of product in the supernatant (aldosterone for CYP11B2 assay and cortisol for the CYP11B1 assay) was measured using HTRF-based assay kit (Aldosterone HTRF-CisBio#64ALDPEB, Cortisol HTRF-CisBio #63IDC002-CORT).

For `CC(C)C(=O)N1CCc2cc(-c3cncc4ccccc34)ccc21`, the IC50 (as a rule, the concentration needed to halve the response being measured) came out at 30 nM.

As for `O=C(N1CCc2cc(-c3cncc(F)c3)cc(F)c21)C(F)(F)F`, the IC50 stood at 17.4 nM.

For `CC(=O)N1CCc2cc(-c3cncc(F)c3C)cc(Cl)c21`, the half-inhibitory concentration (IC50) was 1.4 nM.

As to `O=C(N1CCc2cc(-c3cncc(F)c3)cc(Cl)c21)C(F)(F)F`, the half-maximal inhibitory concentration (IC50) was determined as 10.6 nM.

In the case of `CC(=O)N1CCc2cc(-c3cnccc3C)cc(F)c21`, the concentration for half-maximal inhibition (IC50) came out at 0.2 nM.

(Values after ChEMBL document CHEMBL5726363, “Indoline compounds as aldosterone synthase inhibitors” (2017).)
